Holding throughout (format): in vivo, C57BL/6J mouse
Assay [1] concerns Lactobacillus. Put plainly: Metagenome analysis of feces in high-fat diet induced obesity model: proportion of Lactobacillus. As to conditions: for Lactobacillus Average (%): feces after 8 weeks. The method, then:
(§1) A 5-week-old male C57BL/6J mouse prepared in Example 1.2 were used after a 2-week acclimatization process, and then adjustment of body weight for each group. From the time the mouse reached 7 weeks of age, obesity was induced with a high fat diet (HFD). The mice were fed ad libitum with a general feed or a high-fat diet feed for 16 weeks, and PBS and galactose were orally administered daily to each group. The input amount and the remaining amount of the feed were measured twice a week to calculate daily caloric intake, and the body weight was measured once a week at a designated time. For microbiome analysis, feces were collected as shown in FIG. 1 and analysis was requested to Macrogen Inc. Feces were collected after selecting five mice whose body weight was closest to the average. The number of animals in each group was set to 8. After 8 weeks of the experiment, metagenome analysis was performed by collecting feces from the 3rd group (HFD-PBS), the 5th group (HFD-Gal 100 mg/kg), and the 6th group (HFD-Gal 50 mg/kg). The results of the metagenomic analysis were obtained by requesting metagenome sequencing to Macrogen Co., Ltd. For the experimental results, significance was tested using the TTEST method, and when the P value was less than 0.05, that value was determined to be significant ((*)<0.05, (**)<0.01, (***)<0.001).

Assay [2] concerns Akkermansia. Put plainly: Metagenome analysis of feces in high-fat diet induced obesity model: proportion of Akkermansia. As to conditions: for Akkermansia Average (%): feces after 8 weeks. How it is done:
as §1

Assay [3] concerns Alistipes. Kind of assay: Metagenome analysis of feces in high-fat diet induced obesity model: proportion of Alistipes. As to conditions: for Alistipes Average (%): feces after 8 weeks. How it is done:
as §1

Assay [4] in a line: Measurement of body weight (weight gain) in mice on normal or high-fat diet. As to conditions: 16 weeks, oral daily, n=8. How it is done: A 5-week-old male C57BL/6J mouse prepared in Example 1.2 were used after a 2-week acclimatization process, and then adjustment of body weight for each group. From the time the mouse reached 7 weeks of age, obesity was induced with a high fat diet (HFD). The mice were fed ad libitum with a general feed or a high-fat diet feed for 16 weeks, and PBS and galactose were orally administered daily to each group. The input amount and the remaining amount of the feed were measured twice a week to calculate daily caloric intake, and the body weight was measured once a week at a designated time. During the experimental period (16 weeks) designed in Example 1.3, the body weight of the experimental animals were measured at a predetermined time every week before administration of galactose or PBS, and body weight change (weight gain) and survival rate were measured (allowed to euthanize if the body weight decreases to less than 20% of the initial body weight). The weight gain was calculated by setting the body weight (initial body weight) of the experimental animal at 7 weeks of age as 100% and then calculating the body weight measured at each time point as a relative value to the initial body weight.

A short description of assay [5]: Intraperitoneal glucose tolerance test. How it is done:
The experimental animals were kept hungry (12-hour fasting) from 9:00 p.m. the day before the test to 9:00 a.m. the day of the test, and then a blood glucose test was performed. To keep a hungry condition, feed and straw litter were removed to induce fasting. A 10% (w/v) glucose (in PBS) solution sterilized by 0.2 μm filtration was prepared. After intraperitoneally administering 2 mg glucose/g, volume=body weight*20 (μl) for each individual, the mice were again put in the cage, and blood glucose levels were measured every 0, 30, 60, 90, and 120 minutes. The blood glucose tests were performed by collecting blood from the caudal vein. The intraperitoneal glucose tolerance test was performed 13 weeks after inducing obesity with a high-fat diet.

[6] abbreviates: group 5: high fat diet, galactose 100 mg/kg oral daily.
[7] abbreviates: group 6: high fat diet, galactose 50 mg/kg oral daily.
Where [8] appears, read: high fat diet, galactose-administered group vs PBS control.

With `O=C[C@H](O)[C@@H](O)[C@@H](O)[C@H](O)CO` [Galactose, galactose], the “Lactobacillus Average (%)” value worked out at 3.8375% in assay [1] (setting [6]) and 2.17% in assay [1] (setting [7]). The “proportion of Lactobacillus as compared with a control group” value in assay [1] (setting [8]) is on record as “increased”. Moreover, the entries for the “Akkermansia Average (%)” value in assay [2] (setting [6]) and in assay [2] (setting [7]) were 1.365% and 0.135%, respectively. The “proportion of Akkermansia as compared with a control group” value in assay [2] (setting [8]) is recorded as “increased”. Besides, the “Alistipes Average (%)” value in assay [3] (setting [6]) is reported as 1.0275%; in assay [3] (setting [7]) it was 1.9675%. For the same molecule, in assay [3] (setting [8]), the “proportion of Alistipes as compared with a control group” value is listed as “increased”. Moreover, the “weight gain vs PBS-administered group” value is “no significant difference” in assay [4] (general diet group) and “significantly reduced” in assay [4] (high-fat diet feed group). In assay [5] (high-fat diet group, measured at 120 minutes after i.p. glucose), the “blood sugar levels at 120 minutes” value was “comparable to those in the normal diet group”. Also, the “blood glucose level vs control group (PBS-administered)” value in assay [5] (high-fat diet intake group (HD), 13 weeks after inducing obesity, 2 mg glucose/g i.p.) was “significantly decreased”. In addition, the “blood glucose by galactose administration” value in assay [5] (normal diet intake group (ND), 2 mg glucose/g i.p., 12-hour fasting) is reported as “decreased”.

The values are drawn from patent US20240207293A1, “COMPOSITION FOR IMPROVING INTESTINAL MICROBIAL POPULATION COMPRISING GALACTOSE” (Quorum Bio Co., Ltd., priority 2021, published 2024).
